Data as given in patent US12558366B2, “Bacterial DNA gyrase inhibitors and methods of use thereof” (THE FLORIDA INTERNATIONAL UNIVERSITY BOARD OF TRUSTEES, priority 2021, dated 2026).
pIC50: −log10 of the molar value. ≈ marks a conversion by molar mass, not a printed value. Entries after “also recorded” stand apart in the source; their conditions may differ.

Assays:
E. coli (ATCC 25922) = test: Minimum inhibitory concentration, E. coli; format: cell-based; conditions: wildtype strain ATCC 25922
Protocol: (§1) Antibacterial minimum inhibitory concentrations (MICs) were obtained from three independent experiments using broth microdilution methods in 96-well plates according to Clinical and Laboratory Standards Institute guidelines. Cells were culture from singles colonies in MHIIB medium for 24 h at 37° C. in agitation (200 RPM). The cultures were then diluted using the same media to reach an OD600 of 0.1. Then, 50 μL of the diluted cultures were added to the plates holding 50 μL of serially diluted compounds in MHIIB. The plates were incubated at 37° C. for 20 h. The starting inoculum was fixated to 10^5 colony-forming units per ml.

E. coli DNA gyrase [1] = target: T1, E. coli DNA gyrase (Escherichia coli, UniProt P0AES4+P0AES6); test: E. coli DNA gyrase inhibition (agarose gel-based and/or SDFQ-based, not specified per value); format: biochemical; conditions: Table 2 values; read-out: IC50 ( ≤15 μM) IC50
T1 sequence (P0AES4 whole entry, one chain of several): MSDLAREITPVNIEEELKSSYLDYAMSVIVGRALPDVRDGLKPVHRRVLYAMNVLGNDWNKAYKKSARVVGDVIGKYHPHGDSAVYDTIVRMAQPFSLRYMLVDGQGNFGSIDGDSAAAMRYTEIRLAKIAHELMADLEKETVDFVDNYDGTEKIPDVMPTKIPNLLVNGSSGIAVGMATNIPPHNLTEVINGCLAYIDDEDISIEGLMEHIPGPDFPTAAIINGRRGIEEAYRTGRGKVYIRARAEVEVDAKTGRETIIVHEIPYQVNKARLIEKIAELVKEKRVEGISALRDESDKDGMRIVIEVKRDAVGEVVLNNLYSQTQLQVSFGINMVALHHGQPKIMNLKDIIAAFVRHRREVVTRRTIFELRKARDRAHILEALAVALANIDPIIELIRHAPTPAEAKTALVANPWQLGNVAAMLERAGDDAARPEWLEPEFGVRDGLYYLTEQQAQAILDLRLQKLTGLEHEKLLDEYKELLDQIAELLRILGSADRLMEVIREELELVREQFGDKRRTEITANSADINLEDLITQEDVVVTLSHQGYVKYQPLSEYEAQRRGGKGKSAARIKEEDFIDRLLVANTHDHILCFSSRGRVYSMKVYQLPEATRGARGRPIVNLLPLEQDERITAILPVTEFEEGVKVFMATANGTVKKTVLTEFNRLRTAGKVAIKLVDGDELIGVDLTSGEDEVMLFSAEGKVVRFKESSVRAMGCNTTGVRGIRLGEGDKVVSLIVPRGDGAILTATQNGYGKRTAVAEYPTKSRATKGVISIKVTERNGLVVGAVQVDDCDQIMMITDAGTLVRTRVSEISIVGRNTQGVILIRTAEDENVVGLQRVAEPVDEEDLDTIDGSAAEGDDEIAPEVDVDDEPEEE

E. coli imp = test: microbe, parasite or virus in culture; format: cell-based; conditions: Escherichia coli, read-out: Minimum Inhibitory Concentration E. coli imp
Protocol: as §1

S. aureus (ATCC 14775) = test: Minimum inhibitory concentration, S. aureus; format: cell-based
Protocol: as §1

E. coli DNA gyrase [2] = target: T1, E. coli DNA gyrase; test: DNA gyrase mediated DNA cleavage assay; format: biochemical; conditions: plasmid pBR322
Protocol: 250 ng of supercoiled pBR322 plasmid were incubated with 50 nM of E. coli DNA gyrase in reactions containing 35 mM Tris-HCl, 24 mM KCl, 4 mM MgCl2, 2 mM DTT, 0.1 mg/mL BSA, 6.5% glycerol, and 1.75 mM ATP, in presence of 200 μM of compounds, at 37° C. for 15 min. Then, 0.2% (w/v) of SDS and 0.1 mg/mL proteinase K were added, and samples were incubated at 37° C. for 1 h. […] Samples were examined by electrophoresis in 1% w/v agarose gel containing 0.5 μg/mL ethidium bromide and photographed under UV light.

[3] = target: human DNA topoisomerase 2α (Homo sapiens, UniProt P11388); test: Human DNA topoisomerase 2α-mediated DNA cleavage assays; format: biochemical; conditions: plasmid pBR322
Chain of human DNA topoisomerase 2α (P11388 whole entry): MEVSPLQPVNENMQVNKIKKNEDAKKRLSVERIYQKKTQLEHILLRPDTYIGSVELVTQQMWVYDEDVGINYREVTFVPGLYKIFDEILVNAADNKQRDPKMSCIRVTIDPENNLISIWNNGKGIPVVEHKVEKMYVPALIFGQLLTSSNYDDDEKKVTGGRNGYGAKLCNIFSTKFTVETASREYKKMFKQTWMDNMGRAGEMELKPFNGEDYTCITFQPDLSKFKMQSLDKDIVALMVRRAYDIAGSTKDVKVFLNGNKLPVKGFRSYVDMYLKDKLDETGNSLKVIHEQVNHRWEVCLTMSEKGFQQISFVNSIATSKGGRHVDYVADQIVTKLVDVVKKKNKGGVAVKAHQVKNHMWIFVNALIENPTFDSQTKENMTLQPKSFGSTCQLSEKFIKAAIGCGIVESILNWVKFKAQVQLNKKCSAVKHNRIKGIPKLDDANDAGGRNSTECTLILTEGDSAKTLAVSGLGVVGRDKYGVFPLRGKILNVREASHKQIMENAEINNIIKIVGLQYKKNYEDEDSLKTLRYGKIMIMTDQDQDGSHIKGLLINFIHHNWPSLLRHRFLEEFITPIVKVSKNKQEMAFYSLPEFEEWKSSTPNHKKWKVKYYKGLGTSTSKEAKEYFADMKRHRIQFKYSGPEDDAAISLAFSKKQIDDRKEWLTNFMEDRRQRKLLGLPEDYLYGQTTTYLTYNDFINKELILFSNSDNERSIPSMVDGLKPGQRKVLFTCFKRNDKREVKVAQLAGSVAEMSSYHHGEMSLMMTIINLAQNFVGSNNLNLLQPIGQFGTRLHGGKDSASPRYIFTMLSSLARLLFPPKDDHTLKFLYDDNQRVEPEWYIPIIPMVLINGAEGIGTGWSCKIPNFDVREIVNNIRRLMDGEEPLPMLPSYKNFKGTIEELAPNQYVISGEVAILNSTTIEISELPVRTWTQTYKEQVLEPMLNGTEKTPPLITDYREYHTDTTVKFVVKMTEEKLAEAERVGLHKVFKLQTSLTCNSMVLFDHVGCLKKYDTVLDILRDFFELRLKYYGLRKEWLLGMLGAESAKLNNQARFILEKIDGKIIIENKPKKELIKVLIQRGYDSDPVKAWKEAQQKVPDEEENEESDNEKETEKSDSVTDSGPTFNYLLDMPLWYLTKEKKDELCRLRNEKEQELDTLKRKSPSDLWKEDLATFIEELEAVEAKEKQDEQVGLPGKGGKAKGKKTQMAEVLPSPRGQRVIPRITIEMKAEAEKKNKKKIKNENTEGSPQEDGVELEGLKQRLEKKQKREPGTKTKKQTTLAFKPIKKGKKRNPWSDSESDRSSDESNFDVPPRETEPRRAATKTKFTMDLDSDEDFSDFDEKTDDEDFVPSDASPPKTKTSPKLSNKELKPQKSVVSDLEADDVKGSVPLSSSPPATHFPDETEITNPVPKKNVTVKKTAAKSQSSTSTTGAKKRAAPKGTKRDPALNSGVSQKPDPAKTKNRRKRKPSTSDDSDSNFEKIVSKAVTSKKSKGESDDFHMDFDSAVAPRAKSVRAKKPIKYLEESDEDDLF

MRSA (ATCC BAA44) = test: microbe, parasite or virus in culture; format: cell-based, S. aureus
Protocol: as §1

Q: What does the source list for `N=C(N)Nc1nc(-c2ccccc2)c2cc(Cl)ccc2n1` [Compound 154, N-(6-chloro-4-phenylquinazolin-2-yl)guanidine]?
A: antibacterial activities against E. coli (E. coli (ATCC 25922)): significant antibacterial activities; pIC50 (E. coli DNA gyrase [1]): 5.51; MIC (E. coli imp): 50 to 100 µM (≈ 14.9 to 29.8 µg/mL); growth inhibition of S. aureus (S. aureus (ATCC 14775)): significant antibacterial activities; DNA gyrase-mediated double stranded DNA breaks / DNA nicking (E. coli DNA gyrase [2]): causes the gyrase-mediated DNA double-stranded breaks and single-stranded nicks; also recorded: bacterial DNA gyrase poison; human topoisomerase 2α-mediated DNA nicks and double-stranded breaks [3]: causes the human topoisomerase 2α-mediated DNA nicks and double-stranded breaks; growth inhibition of MRSA (MRSA (ATCC BAA44)): significant antibacterial activities
